Test [1] can be described thus: Inhibition of GPAT at 40 ug/ml.
The nature of test [2]: Inhibition of GPAT.

Molecules are shown by their SMILES.

In turn, `CCCCCCCCS(=O)(=O)N[C@@H]1CC[C@H](C(=O)O)[C@H]1O` (racemic) showed an inhibition in test [1] of 25%. In addition, in test [2], the IC50 came out at 255 µM.

As for `CCCCCCCCS(=O)(=O)N[C@@H]1CC[C@H](CC(=O)O)[C@H]1O` (racemic), the inhibition in test [1] was determined as 16%.

`CCCCCCCCS(=O)(=O)N[C@@H]1CCC[C@H](C(=O)O)[C@H]1O` (racemic) returned an inhibition in test [1] of 17%. On the same count and under the same terms, with `CCCCCCCCS(=O)(=O)N[C@H]1CCC[C@H](CC(=O)O)[C@H]1O` (racemic) the figure was 2%; with `CCCCCCCCS(=O)(=O)N[C@H]1CC[C@H](C(=O)O)[C@H]1O` (racemic), 19%. With `CCCCCCCCS(=O)(=O)N[C@H]1CC[C@H](C(=O)O)[C@@H]1O` (racemic), the inhibition in test [1] was found to be 3%. In addition, the IC50 in test [2] was 324 µM. The like results for `CCCCCCCCS(=O)(=O)N[C@H]1CC[C@H](CC(=O)O)[C@H]1O` (racemic) were, in that order, 8% and 295 µM. For the molecule `CCCCCCCCS(=O)(=O)N[C@@H]1[C@@H](O)CC[C@H]1C(=O)O` (racemic), the inhibition in test [1] worked out at 12%.

Take `CCCCCCCCS(=O)(=O)N[C@@H]1CCC[C@H](CC(=O)O)[C@H]1O` (racemic): the inhibition in test [1] turned out to be 17%.

Turning to `CCCCCCCCCS(=O)(=O)Nc1ccccc1C(=O)O`, the inhibition in test [1] came to 97%. In addition, the IC50 in test [2] is 24.7 µM. Molecule `CCCCCCCCS(=O)(=O)N[C@H]1CCC[C@H](CC(=O)O)[C@@H]1O` (racemic) had an inhibition in test [1] of 23%.

Turning to `CCCCCCCCS(=O)(=O)N[C@H]1CC[C@H](CC(=O)O)[C@@H]1O` (racemic), the inhibition in test [1] was 8%.

`CCCCCCCCS(=O)(=O)N[C@H]1CCC[C@H](C(=O)O)[C@@H]1O` (racemic) returned an inhibition in test [1] of 15%. For the molecule `CCCCCCCCS(=O)(=O)N[C@H]1CCC[C@H](C(=O)O)[C@H]1O` (racemic), in test [1], the inhibition came out at 36%. Besides, inhibition in test [2] was half-maximal at 164 µM (IC50).

`CCCCCCCCS(=O)(=O)N[C@H]1[C@H](O)CC[C@H]1C(=O)O` (racemic): the inhibition in test [1] stood at 15%.
